Test results as given in the supplement of paper PMC11451515.

Test system: NOMO1
Experiment: cell viability relative to DMSO control; higher = less cytotoxic
Conditions: 48 h
Procedure, shortened: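 Viability was expressed as a per-plate percentage of DMSO wells, with cell-free wells as background. Leukemia cells (NOMO1 or SEM at 500 cells/well, P12-Ichikawa at 1000 cells/well) were adapted for at least four passages in each medium and seeded in 1536-well plates (5 μl). Library compounds in DMSO were pin-dosed over an 11-point threefold series from 47 μM to 0.79 nM, and CellTiter-Glo One luminescence was read after 48 h at 37°C.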

[1] = HPLM + 10% dialyzed FBS, 0.000781 µM
[2] = HPLM + 10% dialyzed FBS, 0.00234 µM
[3] = HPLM + 10% dialyzed FBS, 0.00702 µM
[4] = HPLM + 10% dialyzed FBS, 0.0211 µM
[5] = HPLM + 10% dialyzed FBS, 0.0632 µM
[6] = HPLM + 10% dialyzed FBS, 0.19 µM
[7] = HPLM + 10% dialyzed FBS, 0.569 µM
[8] = HPLM + 10% dialyzed FBS, 1.71 µM
[9] = HPLM + 10% dialyzed FBS, 5.12 µM
[10] = HPLM + 10% dialyzed FBS, 15.4 µM
[11] = HPLM + 10% dialyzed FBS, 46.1 µM
[12] = RPMI 5 mM glucose + 10% FBS, 0.000781 µM
[13] = RPMI 5 mM glucose + 10% FBS, 0.00234 µM
[14] = RPMI 5 mM glucose + 10% FBS, 0.00702 µM
[15] = RPMI 5 mM glucose + 10% FBS, 0.0211 µM
[16] = RPMI 5 mM glucose + 10% FBS, 0.0632 µM
[17] = RPMI 5 mM glucose + 10% FBS, 0.19 µM
[18] = RPMI 5 mM glucose + 10% FBS, 0.569 µM
[19] = RPMI 5 mM glucose + 10% FBS, 1.71 µM
[20] = RPMI 5 mM glucose + 10% FBS, 5.12 µM
[21] = RPMI 5 mM glucose + 10% FBS, 15.4 µM
[22] = RPMI 5 mM glucose + 10% FBS, 46.1 µM
[23] = RPMI 5 mM glucose + 10% dialyzed FBS, 0.000781 µM
[24] = RPMI 5 mM glucose + 10% dialyzed FBS, 0.00234 µM
[25] = RPMI 5 mM glucose + 10% dialyzed FBS, 0.00702 µM
[26] = RPMI 5 mM glucose + 10% dialyzed FBS, 0.0211 µM
[27] = RPMI 5 mM glucose + 10% dialyzed FBS, 0.0632 µM
[28] = RPMI 5 mM glucose + 10% dialyzed FBS, 0.19 µM
[29] = RPMI 5 mM glucose + 10% dialyzed FBS, 0.569 µM
[30] = RPMI 5 mM glucose + 10% dialyzed FBS, 1.71 µM
[31] = RPMI 5 mM glucose + 10% dialyzed FBS, 5.12 µM
[32] = RPMI 5 mM glucose + 10% dialyzed FBS, 15.4 µM
[33] = RPMI 5 mM glucose + 10% dialyzed FBS, 46.1 µM

Structure (SMILES) | cell viability [1] | cell viability [2] | cell viability [3] | cell viability [4] | cell viability [5] | cell viability [6] | cell viability [7] | cell viability [8] | cell viability [9] | cell viability [10] | cell viability [11] | cell viability [12] | cell viability [13] | cell viability [14] | cell viability [15] | cell viability [16] | cell viability [17] | cell viability [18] | cell viability [19] | cell viability [20] | cell viability [21] | cell viability [22] | cell viability [23] | cell viability [24] | cell viability [25] | cell viability [26] | cell viability [27] | cell viability [28] | cell viability [29] | cell viability [30] | cell viability [31] | cell viability [32] | cell viability [33]
CCN(CC)CCN1C(=O)\C(=N/C2=CC=CC=C12)CC3=CC=C(OC)C=C3 | 111% | 117% | 99.1% | 118% | 119% | 110% | 115% | 115% | 109% | 113% | 116% | 96.1% | 101% | 117% | 109% | 97.4% | 96.6% | 107% | 102% | 111% | 101% | 97.7% | 98.4% | 102% | 113% | 111% | 115% | 119% | 119% | 121% | 111% | 101% | 102%
OCCCNc1cc(-c2ccnc(Nc3cccc(Cl)c3)n2)ccn1 | 106% | 107% | 119% | 119% | 114% | 80.4% | 14.1% | 7.46% | 8.09% | 6.31% | 4.31% | 92.2% | 98.4% | 117% | 111% | 107% | 54.5% | 18.8% | 9.75% | 8.02% | 7.79% | 4.61% | 97.5% | 95.8% | 100% | 106% | 100% | 63.3% | 15.8% | 7.75% | 7.44% | 7.1% | 5.05%
O=C(NNC(=O)c1ccc(CN[S+](=O)([O-])c2ccc(F)c(Cl)c2)cc1)c1ccccc1 | 105% | 105% | 116% | 121% | 112% | 103% | 104% | 117% | 113% | 82.7% | 110% | 84.1% | 85.2% | 85.2% | 89.3% | 92.9% | 99.5% | 93.3% | 91.3% | 96.7% | 94.5% | 92.6% | 92.1% | 98.5% | 107% | 94.2% | 111% | 105% | 103% | 102% | 115% | 112% | 115%
CC1(C)CC(O)CC(C)(C)N1[O] | 100% | 125% | 109% | 115% | 115% | 114% | 125% | 121% | 124% | 129% | 120% | 105% | 122% | 128% | 116% | 128% | 128% | 123% | 118% | 135% | 128% | 127% | 100% | 123% | 121% | 123% | 119% | 119% | 123% | 125% | 120% | 123% | 129%
C[N+](C)([O-])CCNc1ccc(NCC[N+](C)(C)[O-])c2c1C(=O)c1c(O)ccc(O)c1C2=O | 84.5% | 94.9% | 96.7% | 103% | 108% | 97.2% | 80.6% | 70.2% | 51.2% | 48% | 38.3% | 84.4% | 86.9% | 84.1% | 97.2% | 89.4% | 94.5% | 91.4% | 90.4% | 33% | 55.8% | 19.8% | 90.3% | 93.6% | 92.6% | 92.7% | 102% | 99.6% | 90.5% | 77% | 59.7% | 48.5% | 44%
COc1cc(OC)c(NC(=O)Nc2cc(C)on2)cc1Cl | 97.6% | 96.4% | 100% | 106% | 106% | 84.4% | 119% | 114% | 100% | 105% | 96.9% | 83.5% | 96.7% | 85.2% | 92.7% | 93.8% | 97.9% | 93.9% | 91% | 90.1% | 88.7% | 99.5% | 86.8% | 83.8% | 81.3% | 85.6% | 97.3% | 89.4% | 98% | 79.7% | 83% | 88.1% | 88.3%
CC(NCc1ccc2c(c1)[nH]/c(=N\C(=O)c1ccc(-c3cn[nH]c3)s1)n2CC(C)(C)O)C(C)(C)C (centres undefined) | 110% | 109% | 113% | 112% | 106% | 103% | 74.4% | 54.1% | 9.83% | 5.43% | 4.17% | 110% | 104% | 109% | 98.7% | 102% | 103% | 98.7% | 87.2% | 10.8% | 5.4% | 3.08% | 116% | 100% | 110% | 99.5% | 101% | 101% | 92.9% | 69.7% | 8.51% | 4.24% | 2.97%
C#Cc1cccc(Nc2ncnc3cc(OC)c(OCCCCCCC(=O)NO)cc23)c1 | 125% | 119% | 136% | 129% | 111% | 98.2% | 41.5% | 18.4% | 7.85% | 8.02% | 3.32% | – | – | – | – | – | – | – | – | – | – | – | – | – | – | – | – | – | – | – | – | – | –
CC(C)(C)NC(=O)[C@@H]1CN(Cc2cccnc2)CCN1C[C@@H](O)C[C@@H](Cc1ccccc1)C(=O)N[C@H]1c2ccccc2C[C@H]1O.O=S(=O)(O)O | 103% | 122% | 111% | 108% | 117% | 105% | 106% | 127% | 122% | 130% | 90.9% | 112% | 112% | 128% | 128% | 120% | 119% | 132% | 136% | 133% | 130% | 107% | 99.5% | 117% | 123% | 116% | 120% | 119% | 125% | 155% | 145% | 136% | 98%
O=C1CCc2ccc(OCCCCN3CCN(c4cccc(Cl)c4Cl)CC3)cc2N1 | 115% | 98.6% | 119% | 77.7% | 96.1% | 109% | 89.2% | 91.6% | 106% | 107% | 85.1% | 91.2% | 91.7% | 94.7% | 86.6% | 92.9% | 89.5% | 96.6% | 97.2% | 81.6% | 93.6% | 77.6% | 106% | 83.6% | 97.7% | 75.2% | 96.1% | 93.6% | 91.5% | 98.1% | 91.1% | 97.5% | 78.7%
N#CC(=C(/N)Sc1ccccc1N)/C(C#N)=C(\N)Sc1ccccc1N | 118% | 119% | 122% | 128% | 134% | 140% | 130% | 101% | 107% | 90.8% | 71% | 115% | 115% | 121% | 120% | 120% | 121% | 118% | 117% | 114% | 120% | 97.8% | – | – | – | – | – | – | – | – | – | – | –
O=C1N\2CCC3=C([NH]C4=C3C=CC=C4)C2=N/C5=CC=CC=C15 | 111% | 122% | 130% | 134% | 155% | 147% | 130% | 129% | 155% | 130% | 112% | 144% | 124% | 125% | 128% | 132% | 124% | 169% | 136% | 139% | 140% | 131% | 115% | 121% | 129% | 130% | 130% | 124% | 122% | 140% | 135% | 141% | 124%
COc1cc(N[S+](=O)([O-])c2ccc(N)cc2)nc(OC)n1 | 102% | 106% | 111% | 116% | 109% | 92.5% | 114% | 112% | 99.3% | 132% | 109% | 107% | 106% | 116% | 111% | 124% | 111% | 112% | 103% | 96.3% | 111% | 120% | 105% | 91.9% | 104% | 103% | 102% | 115% | 110% | 99.9% | 94% | 116% | 111%
CC(C)c1ccccc1Cc1cc(C(=O)Nc2ccc([S+](=O)([O-])c3ccccc3C(C)(C)C)cc2)c(O)c(O)c1O | – | – | – | – | – | – | – | – | – | – | – | 102% | 116% | 101% | 102% | 114% | 117% | 102% | 109% | 105% | 97.4% | 87.7% | 103% | 117% | 111% | 115% | 108% | 118% | 104% | 118% | 96.8% | 97% | 104%
O=c1[nH]cnc2c1ncn2[C@H]1CC[C@@H](CO)O1 | 91.5% | 91.9% | 118% | 97.9% | 93.2% | 88.8% | 98.6% | 100% | 107% | 71.9% | 55% | 78.5% | 88.5% | 93.2% | 94.7% | 87.7% | 87.7% | 101% | 90.4% | 94.4% | 85.5% | 48.4% | 75.4% | 92.5% | 97.8% | 94.5% | 95.1% | 83.5% | 92.8% | 97.3% | 103% | 89% | 57.1%
C#C[C@]1(O)CC[C@H]2[C@@H]3CCc4cc(OC)ccc4[C@H]3CC[C@@]21C | 108% | 123% | 114% | 118% | 117% | 114% | 107% | 105% | 109% | 102% | 95.4% | 117% | 124% | 108% | 110% | 123% | 123% | 117% | 108% | 106% | 104% | 93.5% | 115% | 107% | 106% | 124% | 120% | 108% | 103% | 109% | 104% | 103% | 107%
